One assay has as its target human STING (Homo sapiens, UniProt Q86WV6). Description: Fluorescence Thermal Shift assay. Type of assay: binding. The following applies: 50 μM compound; STING 0.1 mg/ml; 20 minutes preincubation; read-out: [hSTING] FTS, ΔTm [° C.] for 50 μM. As to the method:
Fluorescence Thermal Shift Assay Compounds of the present invention were tested for binding to human STING in Fluorescence Thermal Shift assay. STING was preincubated with the compounds for 20 minutes in 50 mM Hepes, 150 mM NaCl, pH 7.5 in 16 μl volume, following by adding 4 μl of SyproOrange dye dilution (ThermoFisher, cat no. S-6651). Final STING concentration was 0.1 mg/ml. Thermal unfolding was performed in Real-Time PCR QuantStudio 6 Flex System (Applied Biosystems), from 25 to 99° C., with continuous ramp mode and ramp rate 0.033° C./s. The data were analyzed using Protein Thermal Shift Software (ThermoFisher). […] For example, ΔTm [° C.] of FTS assay for following examples are: […]

The subject of assay [1] is NF-κB pathway in THP-1 dual cells. Briefly: THP-1 Dual Reporter Assay, NF-κB pathway (SEAP reporter). The following applies: Homo sapiens, THP1-Dual, 18 h of stimulation, absorbance at 630 nm, read-out: THP1 Dual EC50 (μM) NFkB. The assay is classed as cell-based. As for the experimental part:
(§1) THP-1 Dual Reporter Assay
(§2) Compounds of the present invention were tested for their activity using THP-1 dual cells (Invivogen, cat no. thpd-nfis) allowing for simultaneous study of NF-κB pathway and the interferon regulatory factor (IRF) pathway. THP-1 dual cells contain luciferase reporter gene under the control of an ISG54 (interferon-stimulated gene) minimal promoter in conjunction with five interferon-stimulated response elements and a secreted embryonic alkaline phosphatase reporter gene under the control an IFN (interferon)-β minimal promoter fused to five copies of the NF-κB consensus transcriptional response element with three copies of the c-Rel binding site. Following 18 h of stimulation with STING agonist, medium was collected and transferred onto fresh cell culture plate. To verify activity of the IRF pathway, luminescence activity was measured with standard laboratory plate reader immediately after addition 10 μl of the medium to 50 μl of luminescence reagent (Invivogen, cat. No. rep-qlc2). To verify activity of NF-κB pathway, 20 μl of the medium was mixed with 80 μl of a detection medium (Invivogen, cat. No. rep-qb2) and incubated for 2 hours at 37° C. in a humidified atmosphere containing 5% CO2. Next, absorbance at 630 nm was recorded using standard laboratory plate reader.
(Reporter assays use an easily measured gene product as a stand-in for the process of interest.)

The subject of assay [2] is interferon regulatory factor (IRF) pathway in THP-1 dual cells. Briefly: THP-1 Dual Reporter Assay, IRF pathway (luciferase reporter). The assay is classed as cell-based. The settings on record: Homo sapiens, THP1-Dual, 18 h of stimulation, luminescence. As for the experimental part:
as §1, §2

Molecules are shown by their SMILES.

human STING, sequence (Q86WV6 whole entry H232R): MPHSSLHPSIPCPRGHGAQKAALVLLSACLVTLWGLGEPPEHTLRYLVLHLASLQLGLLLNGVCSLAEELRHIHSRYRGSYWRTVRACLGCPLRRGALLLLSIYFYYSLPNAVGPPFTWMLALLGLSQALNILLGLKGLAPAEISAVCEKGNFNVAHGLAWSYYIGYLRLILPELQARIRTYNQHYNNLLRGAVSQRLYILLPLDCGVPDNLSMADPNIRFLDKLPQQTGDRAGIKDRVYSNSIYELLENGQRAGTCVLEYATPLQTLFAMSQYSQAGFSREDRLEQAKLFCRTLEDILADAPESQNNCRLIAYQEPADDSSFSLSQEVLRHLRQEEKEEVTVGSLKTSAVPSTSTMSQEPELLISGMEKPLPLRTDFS

For `COc1cc(CN(CCCn2cnc3ccccc32)Cc2cn(C)c3ccccc3c2=O)ccn1` [Example 82, 3-({[3-(1H-1,3-benzodiazol-1-yl)propyl][(2-methoxypyridin-4-yl)methyl]amino}methyl)-1-methyl-1,4-dihydroquinolin-4-one], the ΔTm at 50 µM at human STING was more than 2.5 °C. Moreover, the EC50 in assay [1] and in assay [2] was not above 10 µM in each case.

Consider `Cc1ccc2c(=O)c(CN(CCCn3cnc4c(N)ncnc43)Cc3ccncc3)c(C)oc2c1C` [Example 81, 3-({[3-(6-amino-9H-purin-9-yl)propyl][(pyridin-4-yl)methyl]amino}methyl)-2,7,8-trimethyl-4H-chromen-4-one], for which, on human STING, the ΔTm at 50 µM was more than 2.5 °C. The EC50 is 10 to 20 µM in assay [1] and not below 20 µM in assay [2].

For `COc1cc(CN(CCCn2ccnc2)Cc2cn(C)c3ccccc3c2=O)ccn1` [Example 44, 3-({[3-(1H-imidazol-1-yl)propyl][(2-methoxypyridin-4-yl)methyl]amino}methyl)-1-methyl-1,4-dihydroquinolin-4-one], on human STING, the ΔTm at 50 µM was less than 2.5 °C. Further, the EC50 in assay [1] was not below 20 µM; in assay [2], 10 to 20 µM.

As to `COc1ccc2ccc3c(=O)c(CN(CCCc4cccnc4)Cc4ccncc4)coc3c2c1` [Example 52, 9-methoxy-3-({[3-(pyridin-3-yl)propyl][(pyridin-4-yl)methyl]amino}methyl)-4H-benzo[h]chromen-4-one], the ΔTm at 50 µM on human STING was more than 2.5 °C. The EC50 in assay [1] and in assay [2] was not above 10 µM in each case.

`O=c1c(CN(CCCn2cccc2)Cc2ccncc2)coc2ccccc12` [Example 2, 3-({[(pyridin-4-yl)methyl][3-(1H-pyrrol-1-yl)propyl]amino}methyl)-4H-chromen-4-one]: the ΔTm at 50 µM at human STING was less than 2.5 °C. For the same compound, the figures for the EC50 in assay [1] and in assay [2] were not below 20 µM and 10 to 20 µM, respectively.

In the case of `Cc1ccc2c(=O)c(CN(CCCc3cccnc3)Cc3ccncc3)c(C)oc2c1C` [Example 55, 2,7,8-trimethyl-3-({[3-(pyridin-3-yl)propyl][(pyridin-4-yl)methyl]amino}methyl)-4H-chromen-4-one], at human STING, the ΔTm at 50 µM was more than 2.5 °C. Moreover, the concentration for a half-maximal effect (EC50) in assay [1] and in assay [2] was not above 10 µM throughout.

In the case of `COc1ccc2ccc3c(=O)c(CN(CCCn4cnc5ccccc54)Cc4ccncc4)coc3c2c1` [Example 62, 3-({[3-(1H-1,3-benzodiazol-1-yl)propyl][(pyridin-4-yl)methyl]amino}methyl)-9-methoxy-4H-benzo[h]chromen-4-one], on human STING, the shift in melting temperature (ΔTm) at 50 µM is more than 2.5 °C. Also, the EC50 in assay [1] and in assay [2] was not above 10 µM each time.

As to `COc1cc(CN(CCCc2cccnc2)Cc2cn(C3CC3)c3cc(F)c(F)cc3c2=O)ccn1` [Example 95, 1-cyclopropyl-6,7-difluoro-3-({[(2-methoxypyridin-4-yl)methyl][3-(pyridin-3-yl)propyl]amino}methyl)-1,4-dihydroquinolin-4-one], the ΔTm at 50 µM on human STING is more than 2.5 °C. The figures for the EC50 in assay [1] and in assay [2] were 10 to 20 µM and not above 10 µM, respectively.

As for `Cc1ccc2c(=O)c(CN(CCCn3ccnc3)Cc3ccnc(F)c3)coc2c1C` [Example 26, 3-({[(2-fluoropyridin-4-yl)methyl][3-(1H-imidazol-1-yl)propyl]amino}methyl)-7,8-dimethyl-4H-chromen-4-one], the ΔTm at 50 µM on human STING was less than 2.5 °C. For the same compound, the EC50 in assay [1] and in assay [2] was not below 20 µM throughout.

As to `O=C1CCCN1CCCN(Cc1ccncc1)Cc1coc2ccccc2c1=O` [Example 8, 1-(3-{[(4-oxo-4H-chromen-3-yl)methyl](pyridin-4-ylmethyl)amino}propyl)pyrrolidin-2-one], the ΔTm at 50 µM at human STING is less than 2.5 °C. Moreover, the EC50 in assay [1] and in assay [2] was not below 20 µM each time.

As to `COc1ccc(-c2ccc3c(=O)c(CN(CCCn4ccnc4)Cc4ccncc4)c(C)oc3c2)cc1` [Example 56, 3-({[3-(1H-imidazol-1-yl)propyl][(pyridin-4-yl)methyl]amino}methyl)-7-(4-methoxyphenyl)-2-methyl-4H-chromen-4-one], the ΔTm at 50 µM on human STING was more than 2.5 °C. In addition, the concentration for a half-maximal effect (EC50) in assay [1] and in assay [2] was not above 10 µM throughout.

Consider `O=c1c(CN(CCCc2cccnc2)Cc2ccncc2)coc2ccccc12` [Example 19, 3-({[3-(pyridin-3-yl)propyl][(pyridin-4-yl)methyl]amino}methyl)-4H-chromen-4-one], for which the ΔTm at 50 µM at human STING is more than 2.5 °C. Moreover, the EC50 is 10 to 20 µM in assay [1] and not above 10 µM in assay [2].

`Cc1oc2cc(N3CCN(C)CC3)c(F)cc2c(=O)c1CN(CCCn1cnc2cncnc21)Cc1ccncc1` [Example 79, 6-fluoro-2-methyl-7-(4-methylpiperazin-1-yl)-3-({[3-(9H-purin-9-yl)propyl][(pyridin-4-yl)methyl]amino}methyl)-4H-chromen-4-one]: the ΔTm at 50 µM on human STING is more than 2.5 °C. The EC50 in assay [1] and in assay [2] was not above 10 µM in each case.

For `Cc1cc(CN(CCCn2ccnc2)Cc2coc3ccccc3c2=O)ccn1` [Example 25, 3-({[3-(1H-imidazol-1-yl)propyl][(2-methylpyridin-4-yl)methyl]amino}methyl)-4H-chromen-4-one], the ΔTm at 50 µM at human STING is less than 2.5 °C. The EC50 in assay [1] was not below 20 µM; in assay [2], 10 to 20 µM.

In the case of `COc1cc(CN(CCCc2cncnc2)Cc2cn(C)c3ccccc3c2=O)ccn1` [Example 96, 3-({[(2-methoxypyridin-4-yl)methyl][3-(pyrimidin-5-yl)propyl]amino}methyl)-1-methyl-1,4-dihydroquinolin-4-one], the ΔTm at 50 µM at human STING was more than 2.5 °C. Moreover, the half-maximal effective concentration (EC50) in assay [1] and in assay [2] was not above 10 µM in each case.

As for `O=c1c(CN(CCCn2ccnc2)Cc2ccncc2)coc2c(F)cc(F)cc12` [Example 45, 6,8-difluoro-3-({[3-(1H-imidazol-1-yl)propyl][(pyridin-4-yl)methyl]amino}methyl)-4H chromen-4-one], the thermal shift (ΔTm) at 50 µM at human STING was less than 2.5 °C. Further, the figures for the EC50 in assay [1] and in assay [2] were not below 20 µM and 10 to 20 µM, respectively.

`Cc1oc2cc(Br)c(F)cc2c(=O)c1CN(CCCc1cccnc1)Cc1ccncc1` [Example 63, 7-bromo-6-fluoro-2-methyl-3-({[3-(pyridin-3-yl)propyl][(pyridin-4-yl)methyl]amino}methyl)-4H-chromen-4-one]: the ΔTm at 50 µM at human STING is more than 2.5 °C. Besides, the EC50 in assay [1] and in assay [2] was not above 10 µM throughout.

With `COc1cc(CN(CCCc2cccnc2)Cc2nn(C)c3ccccc3c2=O)ccn1` [Example 94, 3-({[(2-methoxypyridin-4-yl)methyl][3-(pyridin-3-yl)propyl]amino}methyl)-1-methyl-1,4-dihydrocinnolin-4-one], at human STING, the ΔTm at 50 µM is more than 2.5 °C. The EC50 in assay [1] is not below 20 µM; in assay [2], not above 10 µM.

For `O=c1c(CN(CCCn2ccnc2)Cc2ccncc2)coc2cc(F)ccc12` [Example 11, 7-fluoro-3-({[3-(1H-imidazol-1-yl)propyl](pyridin-4-ylmethyl)amino}methyl)-4H-chromen-4-one], the shift in melting temperature (ΔTm) at 50 µM at human STING was less than 2.5 °C. The EC50 is not below 20 µM in assay [1] and 10 to 20 µM in assay [2].

For `O=c1c(CN(CCCc2cccnc2)Cc2ccncc2)coc2c1cc(F)c1ccccc12` [Example 54, 6-fluoro-3-({[3-(pyridin-3-yl)propyl][(pyridin-4-yl)methyl]amino}methyl)-4H benzo[h]chromen-4-one], the ΔTm at 50 µM on human STING was more than 2.5 °C. The EC50 in assay [1] and in assay [2] was not above 10 µM throughout.

One may read the ΔTm as the shift of the melting midpoint relative to a reference. By EC50 is commonly meant the concentration giving half of the maximal effect.
